# Measurements taken from patent US20070087988A1, “Hematopoietic progenitor kinase 1 for modulation of an immune response” (New York University, priority 2005, published 2007).
# Entries after “also recorded” stand apart in the source; their conditions may differ.
# Test system: HPK1
# Test: HPK1 immune complex in vitro kinase (IVK) assay, endogenous HPK1 from treated Jurkat cells
# Format: cell-based, human
# Conditions: Lck (JCaM1), ZAP-70 (p116), Lat (ANJ-3), SLP-76 (J14) deficient lines, 10 pM PGE2
smiles,measurement,value
"CCCCC[C@H](O)/C=C/[C@H]1[C@H](O)CC(=O)[C@@H]1C/C=C\CCCC(=O)O [PGE2, prostaglandin E2]",HPK1 kinase activity upon PGE2 stimulation in signaling-mutant Jurkat lines,did not interfere with the ability of HPK1 to respond; also recorded: all Jurkat cell lines could activate HPK1 kinase activity
